# Patent publication US20050222027A1, “Modulation of complement to treat pain” (Euro-Celtique S.A., priority 2003, published 2005)
# “Also recorded” adds a separate entry of the source.
# Experiments:
# [1] = tested on: spinal nerve ligation (SNL) model of neuropathic pain; experiment: Paw pressure test (paw withdrawal threshold) in the SNL model of neuropathic pain; format: in vivo, rat
# Description: Rats having the L5-L6 spinal nerves ligated (SNL) according to the method of Kim and Chung, Pain 1992; 50:355-63 were used in this experiment. Briefly, nerve injury was induced by tight ligation of the left L5 and L6 spinal nerves, producing symptoms of neuropathic pain as described below. The advantage of this model is that it allows the investigation of dorsal root ganglia that are injured (L5 and L6) versus dorsal root ganglia that are not injured (L4). Thus, it is possible to see changes in gene expression specifically in response to nerve injury.
# Surgery was performed under isoflurane/O2 inhalation anesthesia. Following induction of anesthesia, a 3 cm incision was made just lateral to the spinal vertebrae. The left paraspinal muscles were separated from the spinous process at the L4-S2 levels. The L6 transverse process was carefully removed with a pair of small rongeurs to visually identify the L4-L6 spinal nerves. The left L5 and L6 spinal nerves were isolated and tightly ligated with 7-0 silk suture. A complete hemostasis was confirmed, and the wound was sutured using […] sutures, such as 4-0 Vicryl.
# Mechanical sensitivity was assessed using the paw pressure test. This test measures mechanical hyperalgesia. Hind paw withdrawal thresholds (“PWT”) (measured in grams) in response to a noxious mechanical stimulus were determined using an analgesymeter (Model 7200, commercially available from Ugo Basile of Italy), as described in Stein, Biochemistry & Behavior 1988; 31: 451-455. […] PWT was determined once for each rat at each time point, and only the injured ipsilateral paw (i.e., the hind paw on the same side of the animal as the ligation in SNL animals, or the side of the animal where the nerve was exposed but not injured in sham-operated animals) was used in the test. […]
# The timeline for the general method of surgery followed by CVF injection is outlined in FIG. 8. […] Pain behavior was measured using the paw pressure test as described in Example 1 above. C3 activity was measured by the hemolysis assay before and after animals received CVF as described below.
# C3 = experiment: Hemolysis assay measuring C3 activity in serum of rats given CVF; format: in vivo, rat
# Description: A variety of methods well-known in the art can be used to determine at least one activity of a complement component. As described in the Examples Section below, the hemolysis assay can be used to measure the activity of C3 in the serum from blood samples. In the hemolysis assay, erythrocytes are sensitized by coating these erythrocytes with antibodies against red blood cells. Next, the sensitized erythrocytes, C3-depleted serum, and a blood sample to be tested for C3 activity are combined and incubated. During incubation, the complement pathway proceeds on the surface of the erythorcytes using complement components from the C3-depleted serum and C3 from the blood sample. This pathway can result in the formation of a sufficient number of MAC pores to induce erythorcyte lysis and hemoglobin release. The optical density at 540 run is then measured to determine the quantity of free hemoglobin in solution as a result of erythrocyte lysis. Since erythrocyte lysis is a result of complement activation and the presence of C3, the optical density at 540 nm is a measure of the activity of C3 in the blood sample.
# To determine the effect of CVF on complement C3 activity, naïve animals were injected with CVF on days 0, 3, and 6. C3 activity was measured using the hemolysis assay before and after CVF injections as described below.
# The timeline for the general method of surgery followed by CVF injection is outlined in FIG. 8. Spinal nerve ligation (SNL) was performed on Sprague-Dawley rats as described above in Example 1. On day 0, SNL surgery was performed on 20 rats and sham surgery was performed on 20 rats. At days 23 and 26 post surgery, 10 SNL and 10 sham animals (designated herein as SNL-CVF and Sham-CVF, respectively) were injected (ip) with CVF (350 units/kg). In addition, as controls, 10 SNL and 10 sham animals (designated herein as SNL-saline and Sham-saline, respectively) were given saline injections (ip). Five animals from each group were terminated on day 29. The remaining five animals were terminated on day 39. Pain behavior was measured using the paw pressure test as described in Example 1 above. C3 activity was measured by the hemolysis assay before and after animals received CVF as described below.
# The sensitization of sheep erythrocytes and the hemolysis assay to measure C3 activity were performed according to the Quidel Technical Bulletin entitled Measurement of C3 function in non-primate sera by hemolytic assay (Quidel Corporation, Santa Clara, Calif.). References within this protocol are the following: DeSautel and Brode, Laryngoscope 1999, 109:1674-8; Kirshfink, The Complement System 1998, Rother and Till eds, Springer Verlag Berlin Heidelberg, 522-547; Mollnes, Complement and Complement Receptors 1997, Weir ed, 78.1-78.6; Porcel et al., J. Immunol Method. […]
substance,measurement,setting,value
CVF,Pain tolerance (withdrawal threshold to a mechanical stimulus) versus SNL animals injected with saline,[1]; SNL rats treated with CVF compared to SNL saline control,chronic pain is alleviated; also recorded: higher pain tolerance
same,Pain behavior (paw withdrawal threshold) of SNL-CVF animals by day 29,"[1]; SNL rats, CVF 350 units/kg ip on days 23 and 26 post surgery, day 29, FIG. 9",not significantly different than Sham-saline or Sham-CVF animals
same,Pain behavior (paw withdrawal threshold) of SNL-CVF animals by day 31,"[1]; SNL rats, CVF 350 units/kg ip on days 23 and 26 post surgery, day 31, FIG. 9",returned to day 23 levels
same,C3 complement activity levels on day 39,"C3; CVF 350 units/kg ip on days 23 and 26 post surgery, day 39, FIG. 10C",returned to pre-surgery and day 23 levels
same,C3 activity levels relative to pre-surgery and day 23,"C3; CVF treated animals (350 units/kg ip on days 23 and 26 post surgery), days 28 and 29, FIG. 10B",below 20%
same,C3 activity (hemolysis assay) after CVF treatment,"C3; SNL and sham surgery rats injected with CVF or saline, FIGS. 10B and 10C",C3 activity decreases after CVF treatment in both SNL and sham surgery animals
same,"C3 activity (hemolysis assay, optical density at 540 nm) after CVF treatment","C3; naïve rats, CVF given on days 0, 3 and 6, measured at 0, 3, 6, 7, 8 and 12 days, FIG. 10A",return to pre-dosing levels by day 8; also recorded: C3 activity decreases
